Reference: US9040573B2, “Anti-fungal agent” (Nihon Nohyaku Co., Ltd., priority 2011, dated 2015)
Converted amounts (≈) assume the structure as drawn. Like-named read-outs stand apart in the source and are kept apart here.

Assays:
Scytalidium dimidiatum = assay: Antifungal Activity Test 1: MIC by broth microdilution method (Alamar Blue); format: cell-based; conditions: Neoscytalidium dimidiatum; for MIC: growth inhibited by 80% or more, read-out: MIC
From the text: Scytalidium dimidiatum strain of clinical isolate obtained by separation and identification from nail or stratum corneum of patients with superficial mycosis was used. The fungi pre-cultured on an SDA medium was suspended in 0.1% (w/v) Tween 80-containing sterile saline and the suspension was filtered through gauze to collect arthrospore. This was suspended in 0.1% (w/v) Tween 80-containing sterile saline, and added to a 20% Alamar Blue-containing medium to 2×10^4 cells/mL to give a fungal inoculum solution.
(§1) Each drug was used after dissolving in DMSO (dimethyl sulfoxide).
(§2) The minimum inhibitory concentration (MIC) was measured by a broth microdilution method. That is, RPMI1640 medium (Sigma-Aldrich) was buffered with 0.165 M morpholine propanesulfonic acid (MOPS, Wako Pure Chemical Industries, Ltd.) to pH 7.0, and a given amount of a solution of the drug in DMSO was added thereto to prepare 2-fold dilution series within the range of 0.00098-4 μg/mL. This was added to a 96-well microplate by 100 μL, a fungal inoculum solution (100 μL, final concentration of fungi to be added: 1.0×10^4 cells/mL) was added, and the mixture was cultured at 35° C. An Alamar Blue reagent was added in advance to the culture medium (final addition concentration: 10%) and, at the time point when the Alamar Blue reagent in the drug-free growth control group changed from blue to red, the culture was discontinued and the absorbance (differential optical density at 570 nm based on 590 nm served as reference) measured. The minimum concentration of the drug that inhibited the growth of the fungus in the growth control group by 80% or more was taken as MIC. The concentration to be MIC (MIC90) in 9 strains out of the 10 strains (90%) measured was determined.
Reference documents for measurement method: Takako Shinoda et al.: opinion proposed by Committee for Clinical Laboratory Standards of The Japanese Society for Medical Mycology (1995-1997), Method for antifungal susceptibility testing of filamentous fungus, Medical Mycology Journal, 40: 239-257, 1999. Clinical Laboratory Standards Institute/National Committee for Clinical Laboratory Standards. Reference method for broth dilution antifungal susceptibility testing of filamentous fungus. Approved Standard M38-A2. Wayne, Pa.: National Committee for Clinical Laboratory Standards, 2008. Test Results

Scytalidium hyalinum = assay: Antifungal Activity Test 2: MIC by broth microdilution method (Alamar Blue); format: cell-based; conditions: Neoscytalidium hyalinum
Protocol: as §2
Scytalidium hyalinum strain of clinical isolate available from CBS (Netherlands) was used. The fungus was pre-cultured in an SDA medium, 0.1% (w/v) Tween 80-containing sterile saline was added to give a suspension, which was filtered through gauze to collect arthrospore. This was suspended in 0.1% (w/v) Tween 80-containing sterile saline, and added to a 20% Alamar Blue-containing medium to 2×10^4 cells/mL to give a fungal inoculum solution.
as §1
The test method was the same as in the aforementioned antifungal activity test 1, and the minimum concentration of the drug that inhibited the growth of the fungus in the growth control group by 80% or more was taken as MIC. The MIC range of the 4 strains measured and the geometric mean (GM) of each drug were determined.

MIC (Scytalidium dimidiatum; clinical isolate 530129): 0.25 µg/mL (≈ 0.716 µM)
MIC (Scytalidium dimidiatum; clinical isolate 530142): 0.25 µg/mL (≈ 0.716 µM)
MIC (Scytalidium dimidiatum; clinical isolate 530251): 0.13 µg/mL (≈ 0.372 µM)
MIC (Scytalidium dimidiatum; clinical isolate 530621): 0.25 µg/mL (≈ 0.716 µM)
MIC (Scytalidium dimidiatum; clinical isolate 530633): 0.25 µg/mL (≈ 0.716 µM)
MIC (Scytalidium dimidiatum; clinical isolate 530914): 0.25 µg/mL (≈ 0.716 µM)
MIC (Scytalidium dimidiatum; clinical isolate 530946): 0.25 µg/mL (≈ 0.716 µM)
MIC (Scytalidium dimidiatum; clinical isolate 530999): 0.13 µg/mL (≈ 0.372 µM)
MIC (Scytalidium dimidiatum; clinical isolate 531581): 0.25 µg/mL (≈ 0.716 µM)
MIC (Scytalidium dimidiatum; clinical isolate 531869): 0.13 µg/mL (≈ 0.372 µM)
MIC90 (Scytalidium dimidiatum; concentration to be MIC in 9 strains out of the 10 strains (90%), read-out: MIC90): 0.25 µg/mL (≈ 0.716 µM)
MIC (Scytalidium hyalinum; clinical isolate CBS200.88, growth inhibited by 80% or more, read-out: MIC): 0.13 µg/mL (≈ 0.372 µM)
MIC (Scytalidium hyalinum; clinical isolate CBS545.95, growth inhibited by 80% or more, read-out: MIC): 0.063 µg/mL (≈ 0.18 µM)
MIC (Scytalidium hyalinum; clinical isolate CBS601.85, growth inhibited by 80% or more, read-out: MIC): 0.016 µg/mL (≈ 0.0458 µM)
MIC (Scytalidium hyalinum; clinical isolate CBS619.84, growth inhibited by 80% or more, read-out: MIC): 0.13 µg/mL (≈ 0.372 µM)
MIC (Scytalidium hyalinum; geometric mean of the 4 strains measured, read-out: GM (geometric mean of MIC)): 0.064 µg/mL (≈ 0.183 µM)
MIC (Scytalidium hyalinum; range of the 4 strains measured, read-out: MIC range): 0.016 to 0.13 µg/mL (≈ 0.0458 to 0.372 µM)
Structure (SMILES): C[C@@H](c1ncncc1F)[C@](O)(Cn1cncn1)c1ccc(F)cc1F [VCZ, voriconazole]
